Data reported in patent US11629138B2, “Microbiocidal picolinamide derivatives” (Syngenta Participations AG, priority 2017, dated 2023).

Assays:
[1] = system: Botryotinia fuckeliana (Botrytis cinerea); assay: Botryotinia fuckeliana (Botrytis cinerea) liquid culture (gray mould); type: cell-based; settings: 200 ppm in the formulation, Vogels broth, 24° C., photometric, 3-4 days after application, vs untreated control, read-out: disease control (inhibition of growth)
Description: Botryotinia fuckeliana (Botrytis cinerea) Liquid Culture (Gray Mould) Conidia of the fungus from cryogenic storage are directly mixed into nutrient broth (Vogels broth). After placing a (DMSO) solution of test compound into a microtiter plate (96-well format), the nutrient broth containing the fungal spores is added. The test plates are incubated at 24° C. and the inhibition of growth is determined photometrically 3-4 days after application.

[2] = system: Glomerella lagenarium (Colletotrichum lagenarium); assay: Glomerella lagenarium (Colletotrichum lagenarium) / liquid culture (anthracnose); type: cell-based; settings: Colletotrichum orbiculare; 200 ppm in the formulation; PDB broth, 24° C., photometric, 3 to 4 days after application; vs untreated control; read-out: disease control (inhibition of growth)
Description: Glomerella lagenarium (Colletotrichum lagenarium)/Liquid Culture (Anthracnose) Conidia of the fungus from cryogenic storage are directly mixed into nutrient broth (PDB potato dextrose broth). After placing a (DMSO) solution of test compound into a microtiter plate (96-well format), the nutrient broth containing the fungal spores is added. The test plates are incubated at 24° C. and the inhibition of growth is measured photometrically 3 to 4 days after application.

[3] = system: Monographella nivalis (Microdochium nivale); assay: Monographella nivalis (Microdochium nivale) / liquid culture (foot rot cereals); type: cell-based; settings: 200 ppm in the formulation, PDB broth, 24° C., photometric, 4-5 days after application, vs untreated control, read-out: disease control (inhibition of growth)
Description: Monographella nivalis (Microdochium nivale)/Liquid Culture (Foot Rot Cereals) Conidia of the fungus from cryogenic storage are directly mixed into nutrient broth (PDB potato dextrose broth). After placing a (DMSO) solution of test compound into a microtiter plate (96-well format), the nutrient broth containing the fungal spores is added. The test plates are incubated at 24° C. and the inhibition of growth is determined photometrically 4-5 days after application.

[4] = system: Mycosphaerella arachidis (Cercospora arachidicola); assay: Mycosphaerella arachidis (Cercospora arachidicola) / liquid culture (early leaf spot); type: cell-based; settings: 200 ppm in the formulation, PDB broth, 24° C., photometric, 4-5 days after application, vs untreated control, read-out: disease control (inhibition of growth)
Description: Mycosphaerella arachidis (Cercospora arachidicola)/Liquid Culture (Early Leaf Soot) Conidia of the fungus from cryogenic storage are directly mixed into nutrient broth (PDB potato dextrose broth). After placing a (DMSO) solution of test compound into a microtiter plate (96-well format), the nutrient broth containing the fungal spores is added. The test plates are incubated at 24° C. and the inhibition of growth is determined photometrically 4-5 days after application.

[5] = system: Mycosphaerella graminicola (Septoria tritici); assay: Mycosphaerella graminicola (Septoria tritici) / liquid culture (Septoria blotch); type: cell-based; settings: Zymoseptoria tritici; 200 ppm in the formulation; PDB broth, 24° C., photometric, 4 to 5 days after application; vs untreated control; read-out: disease control (inhibition of growth)
Description: Mycosphaerella graminicola (Septoria tritici)/Liquid Culture (Septoria Blotch) Conidia of the fungus from cryogenic storage are directly mixed into nutrient broth (PDB potato dextrose broth). After placing a (DMSO) solution of test compound into a microtiter plate (96-well format), the nutrient broth containing the fungal spores is added. The test plates are incubated at 24° C. and the inhibition of growth is determined photometrically 4 to 5 days after application.

[6] = system: Phaeosphaeria nodorum (Setoria nodorum); assay: Phaeosphaeria nodorum (Septoria nodorum) / wheat / leaf disc preventative (glume blotch); type: in vivo; settings: Parastagonospora nodorum, foliar, 200 ppm in the formulation, wheat leaf segments cv. Kanzler, 5-7 days after application, vs untreated control, read-out: disease control
Description: Phaeosphaeria nodorum (Setoria nodorum)/Wheat/Leaf Disc Preventative (Glume Blotch) Wheat leaf segments cv. Kanzler are placed on agar in a multiwell plate (24-well format) and sprayed with the formulated test compound diluted in water. The leaf disks are inoculated with a spore suspension of the fungus 2 days after application. The inoculated test leaf disks are incubated at 20° C. and 75% rh under a light regime of 12 h light/12 h darkness in a climate cabinet and the activity of a compound is assessed as percent disease control compared to untreated when an appropriate level of disease damage appears in untreated check leaf disks (5-7 days after application).

[7] = system: Puccinia recondita f. so. tritici; assay: Puccinia recondita f. sp. tritici / wheat / leaf disc preventative (brown rust); type: in vivo; settings: foliar, 200 ppm in the formulation, wheat leaf segments cv. Kanzler, 7-9 days after application, vs untreated control, read-out: disease control
Description: Puccinia recondita f. so. tritici/Wheat/Leaf Disc Preventative (Brown Rust)
Wheat leaf segments cv. Kanzler are placed on agar in multiwell plates (24-well format) and sprayed with the formulated test compound diluted in water. The leaf disks are inoculated with a spore suspension of the fungus 1 day after application. The inoculated leaf segments are incubated at 19° C. and 75% rh under a light regime of 12 h light/12 h darkness in a climate cabinet and the activity of a compound is assessed as percent disease control compared to untreated when an appropriate level of disease damage appears in untreated check leaf segments (7-9 days after application).

[8] = system: Magnaporthe grisea (Pyricularia oryzae); assay: whole plant or invertebrate; type: in vivo; settings: foliar, read-out: disease control

COc1ccnc(C(=O)N[C@@H](C)C(=O)OC(C)C(C)n2ccc3c(Br)ccc(F)c32)c1O (stereo partly drawn) [I.ab.001, [2-(4-bromo-7-fluoro-indol-1-yl)-1-methyl-propyl] (2S)-2-[(3-hydroxy-4-methoxy-pyridine-2-carbonyl)amino]propanoate]
≥ 80%: inhibition at 200 ppm [1] | inhibition at 200 ppm [2] | inhibition at 200 ppm [3] | inhibition at 200 ppm [4] | inhibition at 200 ppm [5] | pest or weed control at 200 ppm [6] | pest or weed control at 200 ppm [7]

COc1ccnc(C(=O)N[C@@H](C)C(=O)OC(C)C(C)n2ccc3c(Br)ccc(F)c32)c1OC(C)=O (stereo partly drawn) [I.ab.041, [2-(4-bromo-7-fluoro-indol-1-yl)-1-methyl-propyl] (2S)-2-[(3-acetoxy-4-methoxy-pyridine-2-carbonyl)amino]propanoate]
≥ 80%: inhibition at 200 ppm [2] | pest or weed control at 200 ppm [8] | inhibition at 200 ppm [4] | inhibition at 200 ppm [5] | pest or weed control at 200 ppm [6] | pest or weed control at 200 ppm [7]

COc1ccnc(C(=O)N[C@@H](C)C(=O)OC(C)C(C)c2ncc(Cl)cc2Cl)c1O (stereo partly drawn) [I.an.001, [2-(3,5-dichloro-2-pyridyl)-1-methyl-propyl] (2S)-2-[(3-hydroxy-4-methoxy-pyridine-2-carbonyl)amino] propanoate]
≥ 80%: inhibition at 200 ppm [2] | pest or weed control at 200 ppm [8] | inhibition at 200 ppm [4] | inhibition at 200 ppm [5] | pest or weed control at 200 ppm [6] | pest or weed control at 200 ppm [7]

COc1ccnc(C(=O)N[C@@H](C)C(=O)OC(C)C(C)c2ncc(Cl)cc2Cl)c1OCOC(=O)C(C)C (stereo partly drawn) [I.an.081, [2-[[(1S)-2-[2-(3,5-dichloro-2-pyridyl)-1-methyl-propoxy]-1-methyl-2-oxo-ethyl]carbamoyl]-4-methoxy-3-pyridyl]oxymethyl 2-methylpropanoate]
≥ 80%: pest or weed control at 200 ppm [8] | inhibition at 200 ppm [3] | inhibition at 200 ppm [4] | inhibition at 200 ppm [5] | pest or weed control at 200 ppm [6] | pest or weed control at 200 ppm [7]

COc1ccnc(C(=O)N[C@@H](C)C(=O)OC(C)C(C)c2ccc(Cl)s2)c1O (stereo partly drawn) [I.ar.001, [2-(5-chloro-2-thienyl)-1-methyl-propyl] (2S)-2-[(3-hydroxy-4-methoxy-pyridine-2-carbonyl)amino]propanoate]
≥ 80%: inhibition at 200 ppm [2] | pest or weed control at 200 ppm [8] | inhibition at 200 ppm [3] | inhibition at 200 ppm [4] | inhibition at 200 ppm [5] | pest or weed control at 200 ppm [7]

COc1ccnc(C(=O)N[C@@H](C)C(=O)OC(C)C(C)n2ccc3cccc(Br)c32)c1O (stereo partly drawn) [I.ba.001, [2-(7-bromoindol-1-yl)-1-methyl-propyl] (2S)-2-[(3-hydroxy-4-methoxy-pyridine-2-carbonyl)amino]propanoate]
≥ 80%: inhibition at 200 ppm [2] | pest or weed control at 200 ppm [8] | inhibition at 200 ppm [3] | inhibition at 200 ppm [4] | inhibition at 200 ppm [5] | pest or weed control at 200 ppm [6] | pest or weed control at 200 ppm [7]

COc1ccnc(C(=O)N[C@@H](C)C(=O)OC(C)C(C)n2ccc3c(Cl)ccc(Cl)c32)c1O (stereo partly drawn) [I.bb.001, [2-(4,7-dichloroindol-1-yl)-1-methyl-propyl] (2S)-2-[(3-hydroxy-4-methoxy-pyridine-2-carbonyl)amino] propanoate]
≥ 80%: inhibition at 200 ppm [2] | pest or weed control at 200 ppm [8] | inhibition at 200 ppm [3] | inhibition at 200 ppm [4] | inhibition at 200 ppm [5] | pest or weed control at 200 ppm [6] | pest or weed control at 200 ppm [7]

COc1ccnc(C(=O)N[C@@H](C)C(=O)OC(C)C(C)n2ccc3cc(Br)ccc32)c1O (stereo partly drawn) [I.bc.001, [2-(5-bromoindol-1-yl)-1-methyl-propyl] (2S)-2-[(3-hydroxy-4-methoxy-pyridine-2-carbonyl)amino]propanoate]
≥ 80%: inhibition at 200 ppm [2] | pest or weed control at 200 ppm [8] | inhibition at 200 ppm [3] | inhibition at 200 ppm [4] | inhibition at 200 ppm [5] | pest or weed control at 200 ppm [7]

COc1ccnc(C(=O)N[C@@H](C)C(=O)OC(C)C(C)n2ccc3c(F)ccc(Br)c32)c1O (stereo partly drawn) [I.bd.001, [2-(7-bromo-4-fluoro-indol-1-yl)-1-methyl-propyl] (2S)-2-[(3-hydroxy-4-methoxy-pyridine-2-carbonyl)amino]propanoate]
≥ 80%: inhibition at 200 ppm [2] | pest or weed control at 200 ppm [8] | inhibition at 200 ppm [3] | inhibition at 200 ppm [4] | inhibition at 200 ppm [5] | pest or weed control at 200 ppm [6] | pest or weed control at 200 ppm [7]

COc1ccnc(C(=O)N[C@@H](C)C(=O)OC(C)C(C)n2ccc3c(F)ccc(Br)c32)c1OC(C)=O (stereo partly drawn) [I.bd.041, [2-(7-bromo-4-fluoro-indol-1-yl)-1-methyl-propyl] (2S)-2-[(3-acetoxy-4-methoxy-pyridine-2-carbonyl)amino]propanoate]
≥ 80%: inhibition at 200 ppm [2] | pest or weed control at 200 ppm [8] | inhibition at 200 ppm [3] | inhibition at 200 ppm [4] | inhibition at 200 ppm [5] | pest or weed control at 200 ppm [6] | pest or weed control at 200 ppm [7]

COc1ccnc(C(=O)N[C@@H](C)C(=O)OC(C)C(C)c2nc3ccccc3s2)c1O (stereo partly drawn) [I.e.001, [2-(1,3-benzothiazol-2-yl)-1-methyl-propyl] (2S)-2-[(3-hydroxy-4-methoxy-pyridine-2-carbonyl)amino] propanoate]
≥ 80%: inhibition at 200 ppm [1] | inhibition at 200 ppm [2] | pest or weed control at 200 ppm [8] | inhibition at 200 ppm [3] | inhibition at 200 ppm [4] | inhibition at 200 ppm [5] | pest or weed control at 200 ppm [7]

COc1ccnc(C(=O)N[C@@H](C)C(=O)OC(C)C(C)n2ccc3ccc(C(F)(F)F)cc32)c1O (stereo partly drawn) [I.z.001, [1-methyl-2-[6-(trifluoromethyl)indol-1-yl]propyl] (2S)-2-[(3-hydroxy-4-methoxy-pyridine-2-carbonyl)amino]propanoate]
≥ 80%: inhibition at 200 ppm [1] | inhibition at 200 ppm [2] | inhibition at 200 ppm [3] | inhibition at 200 ppm [4] | inhibition at 200 ppm [5] | pest or weed control at 200 ppm [6] | pest or weed control at 200 ppm [7]
